Source: article PMC7450057, “Enhancing intracellular accumulation and target engagement of PROTACs with reversible covalent chemistry” (Nature Communications, 2020)
Values joined by “and” are separate entries in the source; they are usually repeats but may differ in a detail not shown here. Equal values may be shown once. “Also recorded” adds a separate entry of the source.

Experiments:
[1] = Permeability by lipid-PAMPA method (Pharmaron); format: in vitro ADME; conditions: PAMPA
Procedure: The permeability of compounds was measured using Lipid-PAMPA method by Pharmaron. Preparation of stock solutions: testosterone and methotrexate were used as control compounds in this assay. The stock solutions of positive controls were prepared in DMSO or acetonitrile at the concentration of 10 mM. Prepare a stock solution of compounds in DMSO at the concentration of 10 mM, and further dilute with PBS (pH 7.4). […]
Assay procedures: prepare a 1.8% solution (w/v) of lecithin in dodecane, and sonicate the mixture to ensure a complete dissolution. Carefully pipette 5 μL of the lecithin/dodecane mixture into each acceptor plate well (top compartment), avoiding pipette tip contact with the membrane. Immediately after the application of the artificial membrane (within 10 min), add 300 μL of PBS (pH 7.4) solution to each well of the acceptor plate. Add 300 μL of drug-containing solutions to each well of the donor plate (bottom compartment) in triplicate. Slowly and carefully place the acceptor plate into the donor plate, making sure the underside of the membrane is in contact with the drug-containing solutions in all wells. Replace the plate lid and incubate at 25 °C, 60 rpm for 16 h. After incubation, aliquots of 50 μL from each well of acceptor and donor plate are transferred into a 96-well plate. Add 450 μL of methanol (containing IS: 100 nM Alprazolam, 200 nM Caffeine, 100 nM Tolbutamide) into each well. Cover with plate lid. Vortex at 750 rpm for 100 s. Samples were centrifuged at 3220 × g for 20 min. Determine the compound concentrations by LC/MS/MS. The effective permeability (Pe), in units of centimeter per second, can be calculated using the following equation: LogPe=LogC×−Ln1−drugacceptor/drugequilibrium

BTK [2] = target: BTK (Homo sapiens, UniProt Q06187); experiment: BTK degradation in MOLM-14 cells (western blot); format: cell-based; parameters: endogenous in cells; host or cells: MOLM-14; conditions: for BTK%: Figure 2c, DMSO = 100
BTK (Homo sapiens, UniProt Q06187), sequence (Q06187 whole entry): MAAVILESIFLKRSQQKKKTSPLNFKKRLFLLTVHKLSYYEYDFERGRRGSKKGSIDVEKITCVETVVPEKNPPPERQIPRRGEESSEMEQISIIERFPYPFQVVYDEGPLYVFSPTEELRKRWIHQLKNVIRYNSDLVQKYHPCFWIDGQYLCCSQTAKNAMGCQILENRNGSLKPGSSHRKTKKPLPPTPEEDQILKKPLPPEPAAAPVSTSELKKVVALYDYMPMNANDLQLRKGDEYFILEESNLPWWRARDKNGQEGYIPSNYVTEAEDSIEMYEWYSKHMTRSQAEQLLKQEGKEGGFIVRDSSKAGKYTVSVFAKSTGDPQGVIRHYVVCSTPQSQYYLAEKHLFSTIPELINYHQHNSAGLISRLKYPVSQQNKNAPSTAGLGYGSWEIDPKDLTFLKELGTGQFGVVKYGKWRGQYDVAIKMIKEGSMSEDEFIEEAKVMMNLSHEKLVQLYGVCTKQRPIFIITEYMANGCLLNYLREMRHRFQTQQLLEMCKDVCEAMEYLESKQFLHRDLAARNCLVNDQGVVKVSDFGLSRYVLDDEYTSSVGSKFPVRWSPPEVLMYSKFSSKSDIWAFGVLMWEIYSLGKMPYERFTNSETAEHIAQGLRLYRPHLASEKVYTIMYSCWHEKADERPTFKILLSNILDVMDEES

Maver-1 = experiment: IC50 in MCL cell lines (Supplementary Table 2), Maver-1; conditions: for Cell Viability (%): Maver-1 cells, replicate wells
Mino cells = experiment: AlamarBlue cell viability assay, Mino; format: cell-based; conditions: for Mino Cell Viability%: Figure 2f, 5 replicates
Procedure: The IC50 was calculated using GraphPad Prism software with a four-parameter dose-response curve fit.

BTK [3] = target: BTK (Mus musculus, UniProt P35991); experiment: Pharmacodynamics: splenic BTK level in mice (western blot); format: in vivo, ICR mice; parameters: from tissue; host or cells: spleen of female ICR mice; conditions: for BTK level, mean: Figure 5d, DMSO = 100; for BTK quantification: Supplementary Figure 8, individual animals
BTK (Mus musculus, UniProt P35991), sequence (P35991 whole entry): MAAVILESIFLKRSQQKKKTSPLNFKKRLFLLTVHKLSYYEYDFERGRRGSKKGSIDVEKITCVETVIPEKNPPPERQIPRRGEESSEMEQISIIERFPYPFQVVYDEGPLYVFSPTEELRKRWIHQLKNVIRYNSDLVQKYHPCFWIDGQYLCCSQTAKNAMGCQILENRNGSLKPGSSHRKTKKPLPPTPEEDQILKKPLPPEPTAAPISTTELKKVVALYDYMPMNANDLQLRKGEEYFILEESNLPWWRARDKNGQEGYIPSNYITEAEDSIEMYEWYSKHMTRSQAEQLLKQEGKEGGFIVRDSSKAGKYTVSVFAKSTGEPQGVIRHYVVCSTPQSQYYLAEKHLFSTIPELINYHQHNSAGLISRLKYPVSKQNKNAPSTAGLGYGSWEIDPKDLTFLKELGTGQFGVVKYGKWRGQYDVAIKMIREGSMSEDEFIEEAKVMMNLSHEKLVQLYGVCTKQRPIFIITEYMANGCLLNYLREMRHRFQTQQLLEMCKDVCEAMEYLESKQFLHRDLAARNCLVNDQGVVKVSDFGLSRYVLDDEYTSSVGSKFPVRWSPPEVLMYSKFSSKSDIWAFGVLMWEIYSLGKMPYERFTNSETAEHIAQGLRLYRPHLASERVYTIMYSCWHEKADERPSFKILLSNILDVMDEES
Procedure: (§1) The collected cells and spleen tissues were lysed in RIPA lysis buffer (50 mM Tris-HCl, pH 7.4, 150 mM NaCl, 1% NP-40, 0.5% sodium deoxycholate, 0.1% SDS) supplemented with Halt™ Protease and Phosphatase Inhibitor Cocktail (Thermo Fisher Scientific, Cat. No. PI78440) immediately before use. Lysates were centrifuged at 15,000 × g for 10 min at 4 °C and the supernatant was quantified for total protein concentration using the Pierce BCA Protein Assay (Thermo Fisher Scientific, Cat. No. 23225). Thirty micrograms of protein were loaded onto sodium dodecyl sulfate−polyacrylamide gel for electrophoresis (Bio-Rad) and transferred onto PVDF membranes (Millipore, Cat. No. IPVH00010). […] Imaging was performed using the ECL Prime chemiluminescent western blot detection reagents (GE Healthcare, Cat. No. RPN2232) by visualization of the blots to X-Ray film or with an Imager (Kindle Biosciences, Cat. No. D1001). All western blots were subsequently processed and quantified with Imager software. Protein level was normalized to β-actin or GAPDH loading controls.
To investigate the protein degradation effect of RC-1 in vivo, mice were subjected to single RC-1 administration at the dose of 50 or 100 mg kg^−1 (i.p.) or seven once-daily RC-1 administration at the dose of 20 mg kg^−1 (i.p.) (n = 2–3). Twenty-four hours after the one-time RC-1 injection or 24 h after the 7th injection, mice were anesthetized with isoflurane and the whole spleen was dissected and stored at −80 °C for western blot analysis of protein level.

C481S mutant BTK = target: T1, C481S mutant BTK (Homo sapiens, UniProt Q06187, C481S); experiment: BTK degradation in XLA cells overexpressing C481S mutant BTK (western blot); format: cell-based; conditions: 24 h
T1 construct: expressed in transfected cells; host or cells: XLA cells (gift from Dr. Woyach)
T1 sequence (Q06187 whole entry C481S): as the sequence (Q06187 whole entry) above, with C481S counted along it
Procedure: XLA cells overexpressing wild-type BTK or mutant C481S BTK were plated at the same cell number and density as the above experiments and were treated with RC-1, IRC-1, or RNC-1 at the dose of 1.6, 8.0, 40, 200, and 1000 nM for 24 h. After completion of treatment, all the cells were collected and processed for western blot analysis.
as §1

SMILES: CN(CCCNC(=O)CNc1cccc2c1C(=O)N(C1CCC(=O)NC1=O)C2=O)C(C)(C)C=C(C#N)C(=O)N1CCC[C@@H](n2nc(-c3ccc(Oc4ccccc4)cc3)c3c(N)ncnc32)C1 (stereo partly shown) [RC-1]
- recovery at 16 h, 10 μM ([1]; Recovery%): 25.1%
- Papp at 16 h, 10 μM ([1]; pH 7.4): < 0.0692 nm/s
- Quantification anti-BTK / anti-β-actin (BTK level vs DMSO) (BTK [2]; Figure 2b, 8 nM, duplicates): 63.6968 and 56.9893
- Quantification anti-BTK / anti-β-actin (BTK level vs DMSO) (BTK [2]; Figure 2b, 40 nM, duplicates): 41.0784 and 35.9122
- Quantification anti-BTK / anti-β-actin (BTK level vs DMSO) (BTK [2]; Figure 2b, 200 nM, duplicates): 29.8182 and 40.565
- BTK% (BTK [2]; 1.6 nM, duplicates): 93.8522% and 87.3729%
- BTK% (BTK [2]; 8 nM, duplicates): 68.8086% and 49.2324%
- BTK% (BTK [2]; 200 nM, duplicates): 29.085% and 28.987%
- BTK% (BTK [2]; 1000 nM, duplicates): 33.1562% and 45.5509%
- Quantification anti-BTK / anti-β-actin (BTK level vs DMSO) (BTK [2]; Figure 2d, DMSO = 100 (mean)): 23.0985
- Degradation at 200 nM (percentage of BTK degradation) (BTK [2]; MOLM-14 cells, 200 nM, 24 h incubation): 81%
- DC50 (BTK [2]; MOLM-14 cells, 24 h, western blot, read-out: DC50 (compound concentration inducing 50% of protein degradation)): 0.0066 µM
- IC50 (Maver-1; Maver-1, triplicates): 3.3 µM
- Cell Viability (%) (Maver-1; 1.25E-06 M): 72.3477% and 75.344% and 75.6032%
- Cell Viability (%) (Maver-1; 1.56E-07 M): 94.303% and 94.8872% and 90.9031%
- Cell Viability (%) (Maver-1; 2.50E-06 M): 56.7361% and 58.5739% and 54.2977%
- Cell Viability (%) (Maver-1; 3.13E-07 M): 94.0011% and 92.8623% and 88.8158%
- Cell Viability (%) (Maver-1; 5.00E-06 M): 44.682% and 45.5221% and 44.0945%
- Cell Viability (%) (Maver-1; 6.25E-07 M): 91.7892% and 94.3523% and 87.1487%
- Cell Viability (%) (Maver-1; 7.81E-08 M): 97.5389% and 95.4976% and 96.2656%
- Mino Cell Viability% (Mino cells; 1.00E-06 M): 28.3764% and 24.0469% and 29.6497% and 18.1013% and 27.4262%
- Mino Cell Viability% (Mino cells; 1.60E-09 M): 86.471% and 91.0355% and 88.9002% and 84.3749% and 77.1755%
- Mino Cell Viability% (Mino cells; 2.00E-07 M): 40.1501% and 37.7601% and 35.1644% and 26.339% and 31.6381%
- Mino Cell Viability% (Mino cells; 3.20E-10 M): 96.9028% and 99.5475% and 70.4757% and 81.6714% and 61.4054%
- Mino Cell Viability% (Mino cells; 4.00E-08 M): 90.2127% and 74.3055% and 49.5631% and 47.134% and 61.6895%
- Mino Cell Viability% (Mino cells; 5.00E-06 M): 17.0239% and 17.5724% and 29.8456% and 19.8449% and 25.2419%
- Mino Cell Viability% (Mino cells; 8.00E-09 M): 98.4014% and 91.3588% and 67.7918% and 72.9048% and 65.2157%
- IC50 (Mino cells; Homo sapiens, Mino cells, 72 h, Alamar Blue): 0.08 µM
- BTK level reduction in the spleens (BTK [3]; 20 mg kg^−1 i.p., 7 daily injections, vs vehicle-treated mice): ~ 50%
- BTK level, mean (BTK [3]; 1 injection): 58.8522
- BTK level, mean (BTK [3]; 7 injections): 59.7357
- BTK quantification (BTK [3]; RC-1 50 mg/kg, 50 mg/kg): 56.2321 and 63.4217 and 82.4136 and 62.324
- BTK quantification (BTK [3]; RC-1 100 mg/kg, 100 mg/kg): 59.6665 and 43.7954 and 40.8615
- BTK degradation (in words) (C481S mutant BTK): dose-dependent BTK degradation; also recorded: degrades both wild-type BTK and the C481S mutant with similar potency
